{
  "source": "ChEMBL document CHEMBL5532740",
  "about": "“Optimization of a Novel DEL Hit That Binds in the Cbl-b SH2 Domain and Blocks Substrate Binding” (ACS Med Chem Lett, 2024)",
  "key": {"[1]": {"biological_target": "T1, E3 ubiquitin-protein ligase CBL-B (Homo sapiens, UniProt Q13191)", "T1 sequence (Q13191 whole entry)": "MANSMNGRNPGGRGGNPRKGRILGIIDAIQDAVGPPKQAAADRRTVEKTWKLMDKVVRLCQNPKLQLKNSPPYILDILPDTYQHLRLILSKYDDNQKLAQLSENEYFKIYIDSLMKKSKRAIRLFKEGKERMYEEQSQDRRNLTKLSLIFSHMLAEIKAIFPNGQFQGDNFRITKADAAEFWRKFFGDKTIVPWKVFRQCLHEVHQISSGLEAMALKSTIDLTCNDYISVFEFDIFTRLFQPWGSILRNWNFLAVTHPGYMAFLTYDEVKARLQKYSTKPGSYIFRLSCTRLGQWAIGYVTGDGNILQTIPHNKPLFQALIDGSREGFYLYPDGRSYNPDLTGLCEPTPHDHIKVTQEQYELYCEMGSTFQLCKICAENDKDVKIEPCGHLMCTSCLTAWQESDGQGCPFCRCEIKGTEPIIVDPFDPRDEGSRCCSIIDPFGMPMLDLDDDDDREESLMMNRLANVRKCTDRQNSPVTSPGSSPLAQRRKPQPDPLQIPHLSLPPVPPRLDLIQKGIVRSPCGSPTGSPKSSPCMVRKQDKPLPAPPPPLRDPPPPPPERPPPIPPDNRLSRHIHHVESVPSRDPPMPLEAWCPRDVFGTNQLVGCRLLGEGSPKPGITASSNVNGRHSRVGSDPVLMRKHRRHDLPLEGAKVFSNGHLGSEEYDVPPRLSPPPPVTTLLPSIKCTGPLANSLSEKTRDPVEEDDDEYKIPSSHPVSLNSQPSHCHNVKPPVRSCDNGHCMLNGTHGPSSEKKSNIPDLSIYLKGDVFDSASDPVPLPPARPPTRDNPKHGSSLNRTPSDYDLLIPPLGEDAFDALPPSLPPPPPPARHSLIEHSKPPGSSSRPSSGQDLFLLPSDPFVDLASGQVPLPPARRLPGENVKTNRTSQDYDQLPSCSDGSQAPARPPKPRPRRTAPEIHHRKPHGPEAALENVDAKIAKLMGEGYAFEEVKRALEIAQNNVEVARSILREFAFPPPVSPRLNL", "assay": "Inhibition of active phospho Cbl-b (unknown origin) using His-phospho ZAP70 as substrate incubated for 30 mins followed by substrate addition and measured after 30 mins by TR-FRET assay"}, "[2]": {"biological_target": "T1, E3 ubiquitin-protein ligase CBL-B", "assay": "Binding affinity to N-terminal Avi-tagged biotinylated human Cbl-b (40 to 426 residues) expressed in Escherichia coli by SPR assay"}},
  "data": [
    {"compound": "CCN1C(=O)[C@H](C)N(C(=O)Cc2c(OC)ccc3c2Oc2c(ccc(OC)c2CC(=O)O)C3(C)C)[C@@H]1c1cc([N+](=O)[O-])cc(OC)c1OCC(=O)O", "values": [
      {"measurement": "IC50", "setting": "[1]", "value": 0.3, "unit": "µM"}
    ]},
    {"compound": "CCOc1c(OC)cc([N+](=O)[O-])cc1[C@@H]1N(C)C(=O)[C@H](C)N1C(=O)Cc1c(OC)ccc2c1Oc1c(ccc(OC)c1C(=O)NS(C)(=O)=O)C2(C)C", "values": [
      {"measurement": "IC50", "setting": "[1]", "value": "> 20", "unit": "µM"}
    ]},
    {"compound": "COc1ccc2c(c1CC(=O)O)Oc1c(ccc(OC)c1CC(=O)N1[C@H](c3cc([N+](=O)[O-])cc(OC)c3OCC(=O)O)N(C)C(=O)[C@@H]1C)C2(C)C", "values": [
      {"measurement": "IC50", "setting": "[1]", "value": 0.34, "unit": "µM"},
      {"measurement": "Kd", "setting": "[2]", "value": 0.28, "unit": "µM"}
    ]},
    {"compound": "COc1ccc2c(c1CC(=O)O)Oc1c(ccc(OC)c1CC(=O)N1[C@@H](C)C(=O)N(C)[C@@H]1c1cc([N+](=O)[O-])cc(OC)c1OCC(=O)O)C2(C)C", "values": [
      {"measurement": "IC50", "setting": "[1]", "value": "> 20", "unit": "µM"},
      {"measurement": "Kd", "setting": "[2]", "value": 44, "unit": "µM"}
    ]},
    {"compound": "CCOC(=O)COc1c(OC)cc([N+](=O)[O-])cc1[C@@H]1N(C)C(=O)[C@H](C)N1C(=O)Cc1c(OC)ccc2c1Oc1c(ccc(OC)c1CC(=O)O)C2(C)C", "values": [
      {"measurement": "IC50", "setting": "[1]", "value": 0.89, "unit": "µM"}
    ]},
    {"compound": "CC[C@H]1C(=O)N(C)[C@@H](c2cc([N+](=O)[O-])cc(OC)c2OCC(=O)O)N1C(=O)Cc1c(OC)ccc2c1Oc1c(ccc(OC)c1CC(=O)O)C2(C)C", "values": [
      {"measurement": "IC50", "setting": "[1]", "value": 0.77, "unit": "µM"}
    ]}
  ]
}
